Assay results: patent US11046672B2, “Indolinones compounds and their use in the treatment of fibrotic diseases” (RESPIVERT LIMITED, priority 2015, dated 2021)
Read-outs that look alike come from different tables or passages of the source. Blank lines part the entries; values can stand above or below the molecule they belong to.

Columns and labels:
PAMPA permeability assay = format: in vitro ADME; details: PAMPA; for recovery at 5 hr, 10 μM: pH 7, PAMPA, donor and acceptor compartments; for Papp at 5 h, 10 μM: pH 7, pH 7, 10 μM
MRC5 cells = test: Cell viability assay in MRC5 cells (MTT)
PDGFRβ = PDGFRβ (Homo sapiens (Human), UniProt P09619); test: PDGF-BB induced phosphorylation of PDGFRβ in fibroblasts (MRC5 cells, HTRF); format: cell-based; details: MRC5 cells; n = 1 unless otherwise indicated; read-out: PDGFBB-induced PDGFRβ phosphorylation in MRC5 cells (IC50)
[1] = Pharmacokinetic measurements in rats (intravenous and intra-tracheal dosing); format: in vivo; details: rat
[2] = Pharmacokinetic measurements in mice (intravenous and intra-nasal dosing); format: in vivo; details: mouse; for concentration at 0.1 h / concentration at 1.5 h / concentration at 24 h: lung, read-out: lung concentration (nM) at time (h)

Chain of PDGFRβ (P09619 33-1106): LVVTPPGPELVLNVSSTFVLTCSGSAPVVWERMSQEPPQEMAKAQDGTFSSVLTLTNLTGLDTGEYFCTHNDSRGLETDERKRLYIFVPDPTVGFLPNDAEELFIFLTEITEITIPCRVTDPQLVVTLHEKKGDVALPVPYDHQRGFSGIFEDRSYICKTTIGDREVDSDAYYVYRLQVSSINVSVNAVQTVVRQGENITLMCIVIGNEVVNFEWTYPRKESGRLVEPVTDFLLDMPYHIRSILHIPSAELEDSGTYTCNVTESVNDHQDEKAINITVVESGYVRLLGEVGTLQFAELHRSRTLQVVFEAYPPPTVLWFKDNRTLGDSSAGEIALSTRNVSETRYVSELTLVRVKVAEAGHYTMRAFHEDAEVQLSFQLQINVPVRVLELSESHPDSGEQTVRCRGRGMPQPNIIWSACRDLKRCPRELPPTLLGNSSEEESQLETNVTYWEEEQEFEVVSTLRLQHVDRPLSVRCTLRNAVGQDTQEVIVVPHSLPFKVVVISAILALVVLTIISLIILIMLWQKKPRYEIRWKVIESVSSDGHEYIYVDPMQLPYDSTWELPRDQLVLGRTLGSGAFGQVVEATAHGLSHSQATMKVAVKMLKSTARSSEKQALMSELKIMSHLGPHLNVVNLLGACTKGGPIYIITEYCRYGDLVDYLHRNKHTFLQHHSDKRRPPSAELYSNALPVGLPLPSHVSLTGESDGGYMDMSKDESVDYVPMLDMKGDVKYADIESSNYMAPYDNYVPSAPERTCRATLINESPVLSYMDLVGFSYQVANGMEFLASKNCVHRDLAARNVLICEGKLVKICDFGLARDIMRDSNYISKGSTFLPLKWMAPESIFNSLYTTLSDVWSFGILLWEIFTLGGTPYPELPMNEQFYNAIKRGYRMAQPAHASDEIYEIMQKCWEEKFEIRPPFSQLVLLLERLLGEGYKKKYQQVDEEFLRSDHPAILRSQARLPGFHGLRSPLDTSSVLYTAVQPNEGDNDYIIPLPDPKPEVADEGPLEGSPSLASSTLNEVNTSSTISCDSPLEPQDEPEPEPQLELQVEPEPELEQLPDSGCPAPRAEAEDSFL

SMILES: COC(=O)c1cc2c(cc1C)/C(=C(/Nc1ccc(C(=O)NOCCN(C)C)cc1)c1ccccc1)C(=O)N2 [Example 26]
recovery at 5 hr, 10 μM (PAMPA permeability assay): 40.2%
Papp at 5 h, 10 μM (PAMPA permeability assay): 0.0156 ×10⁻⁶ cm/s
Cell viability at 100 nM (%) (MRC5 cells): 111.8%
Cell viability at 300 nM (%) (MRC5 cells): 111.4%
Cell viability at 1000 nM (%) (MRC5 cells): 88%

SMILES: COC(=O)c1cc2c(cc1C)/C(=C(/Nc1ccc(C(=O)NOCCN3CCN(C)CC3)c(C)c1)c1ccccc1)C(=O)N2 [Example 28]
recovery at 5 hr, 10 μM (PAMPA permeability assay): 69%
Papp at 5 h, 10 μM (PAMPA permeability assay): 0.00407 ×10⁻⁶ cm/s
Cell viability at 100 nM (%) (MRC5 cells): 110.2%
Cell viability at 300 nM (%) (MRC5 cells): 117%
Cell viability at 1000 nM (%) (MRC5 cells): 104.8%

SMILES: COC(=O)c1cc2c(cc1C)/C(=C(/Nc1ccc(S(=O)(=O)NOCCN(C)C)cc1)c1ccccc1)C(=O)N2 [Example 48]
recovery at 5 hr, 10 μM (PAMPA permeability assay): 67.4%
Papp at 5 h, 10 μM (PAMPA permeability assay): 0.22 ×10⁻⁶ cm/s
Cell viability at 100 nM (%) (MRC5 cells): 132.6%
Cell viability at 300 nM (%) (MRC5 cells): 121%
Cell viability at 1000 nM (%) (MRC5 cells): 103.5%

SMILES: COC(=O)c1cc2c(cc1C)/C(=C(/Nc1ccc(C(=O)NOCCCN3CCC(OC)CC3)cc1)c1ccccc1)C(=O)N2 [Example 55]
recovery at 5 hr, 10 μM (PAMPA permeability assay): 59.1%
Papp at 5 h, 10 μM (PAMPA permeability assay): 0.154 ×10⁻⁶ cm/s
Cell viability at 100 nM (%) (MRC5 cells): 106.7%
Cell viability at 300 nM (%) (MRC5 cells): 111.1%
Cell viability at 1000 nM (%) (MRC5 cells): 92.3%

SMILES: COC(=O)c1cc2c(cc1C)/C(=C(/Nc1ccc(C(=O)N(C)OCCN3CCN[C@@H](C)C3)cc1)c1ccccc1)C(=O)N2 [Example 62]
recovery at 5 hr, 10 μM (PAMPA permeability assay): 72.8%
Papp at 5 h, 10 μM (PAMPA permeability assay): 0.00628 ×10⁻⁶ cm/s
Cell viability at 100 nM (%) (MRC5 cells): 80.7%
Cell viability at 300 nM (%) (MRC5 cells): 73.8%
Cell viability at 1000 nM (%) (MRC5 cells): −0.2%

SMILES: COC(=O)c1cc2c(cc1C)/C(=C(/Nc1ccc(C(=O)N(C)OCCN3CCN[C@H](C)C3)cc1)c1ccccc1)C(=O)N2 [Example 65]
Cell viability at 100 nM (%) (MRC5 cells): 118.6%
Cell viability at 300 nM (%) (MRC5 cells): 110.3%
Cell viability at 1000 nM (%) (MRC5 cells): 70.5%

SMILES: CCN(OCCN1CCNCC1)C(=O)c1ccc(N/C(=C2\C(=O)Nc3cc(C(=O)OC)c(C)cc32)c2ccccc2)cc1 [Example 68]
IC50 (PDGFRβ): 16.5 nM

SMILES: CNC(=O)CN1CCN(CCONC(=O)c2ccc(N/C(=C3\C(=O)Nc4cc(C(=O)OC)c(C)cc43)c3ccccc3)cc2)CC1 [Example 73]
Cell viability at 100 nM (%) (MRC5 cells): 82.9%
Cell viability at 300 nM (%) (MRC5 cells): 104%
Cell viability at 1000 nM (%) (MRC5 cells): 96.8%

SMILES: COC(=O)c1ccc2c(c1)NC(=O)/C2=C(\Nc1ccc(N(C)C(=O)CN2CCN(C)CC2)cc1)c1ccccc1 [Nintedanib, reference compound]
i.t. BAV (%) ([1]; i.t. dosing (i.t. dose 0.1-0.5 per compound)): 43%
BAL % administered dose at time (h) ([1]; i.t. dosing, 0.1 h): 2%
BAL % administered dose at time (h) ([1]; i.t. dosing, 1.5 h): 1%
BAL % administered dose at time (h) ([1]; i.t. dosing, 24 h): 0.1%
BAL % administered dose at time (h) ([1]; i.v. dosing, 0.1 h): 0.06%
BAL % administered dose at time (h) ([1]; i.v. dosing, 1.5 h): 0.03%
BAL % administered dose at time (h) ([1]; i.v. dosing, 24 h): BQL
Cell viability at 100 nM (%) (MRC5 cells): 104.6%
Cell viability at 300 nM (%) (MRC5 cells): 105.6%
Cell viability at 1000 nM (%) (MRC5 cells): 92.7%
concentration at 0.1 h ([2]; male, C57BL/6J, iv, i.v. dosing, 0.1 h, mean): 2380 nM
concentration at 1.5 h ([2]; male, C57BL/6J, iv, i.v. dosing, 1.5 h, mean): 1340 nM
concentration at 24 h ([2]; male, C57BL/6J, iv, i.v. dosing, mean): 10 nM
concentration at 0.1 h ([2]; male, C57BL/6J, other: intra-nasal, i.n. dosing, 0.1 h, mean): 2760 nM
concentration at 1.5 h ([2]; male, C57BL/6J, other: intra-nasal, i.n. dosing, 1.5 h, mean): 804 nM
concentration at 24 h ([2]; male, C57BL/6J, other: intra-nasal, i.n. dosing, mean): 15 nM
clearance ([2]; male, C57BL/6J, whole blood, iv): 81 mL/min/kg
MRT ([2]; male, C57BL/6J, whole blood, iv, i.v. dosing, mean): 2 h
Vd ([2]; male, C57BL/6J, whole blood, iv, i.v. dosing, mean, read-out: Vss): 10 L/kg
half-life ([2]; male, C57BL/6J, whole blood, iv, i.v. dosing, mean, read-out: t½ (converted)): 2 h
BAL % administered dose at time (h) ([2]; i.n. dosing, 0.1 h): 0.5%
BAL % administered dose at time (h) ([2]; i.n. dosing, 1.5 h): 0.1%
BAL % administered dose at time (h) ([2]; i.v. dosing, 0.1 h): 0.3%
BAL % administered dose at time (h) ([2]; i.v. dosing, 1.5 h): 0.03%

Now from value to molecule, other results behind:

IC50 (PDGFRβ): 14.3 nM
SMILES: COC(=O)c1cc2c(cc1C)/C(=C(/Nc1ccc(C(=O)N(OCCN3CCNCC3)C(C)C)cc1)c1ccccc1)C(=O)N2 [Example 69]
Cell viability at 100 nM (%) (MRC5 cells): 92.5%
Cell viability at 300 nM (%) (MRC5 cells): 93.1%
Cell viability at 1000 nM (%) (MRC5 cells): 74.0%

IC50 (PDGFRβ): 9.98 nM
SMILES: COC(=O)c1cc2c(cc1C)/C(=C(/Nc1ccc(C(=O)NOCCN3CCNC(=O)C3)cc1)c1ccccc1)C(=O)N2 [Example 70]
Cell viability at 100 nM (%) (MRC5 cells): 91.7%
Cell viability at 300 nM (%) (MRC5 cells): 99.7%
Cell viability at 1000 nM (%) (MRC5 cells): 94.0%

IC50 (PDGFRβ): 23.2 nM
SMILES: CNC(=O)CN1CCN(CCON(C)C(=O)c2ccc(N/C(=C3\C(=O)Nc4cc(C(=O)OC)ccc43)c3ccccc3)cc2)CC1 [Example 71]

IC50 (PDGFRβ): 36.7 nM
SMILES: CNC(=O)CN1CCN(CCONC(=O)c2ccc(N/C(=C3\C(=O)Nc4cc(C(=O)OC)ccc43)c3ccccc3)cc2)CC1 [Example 72]
